{"source": "patent US11738021B2", "about": "“Composition and method for preventing, alleviating or treating cancer” (CKP Therapeutics, Inc., priority 2021, dated 2023)", "key": {"YUMC-C1 cell line": {"test_system": "YUMC-C1 cell line", "details": "drug alone at 200 μM, FIG. 2", "protocol": "Each of the YUMC-C1, YUMC-H2 and YUMC-P1 cell lines of Example 1 was inoculated into 96-well plates at a density of 6×10^3 cells/well and then cultured overnight to a confluence of 90%. […] However, when 1-(2-fluorophenyl)-4,6-dimethyl-1H,2H,3H-pyrrolo[3,2-c]quinoline was used in combination with oxaliplatin or sorafenib, the treatment concentration of each of oxaliplatin and sorafenib was 30 μM. Thereafter, cell viability was measured using the MTT reagent. The absorbance was measured at 550 nm, and viable cells were counted using trypan blue staining."}, "[1]": {"test_system": "YUMC-C1 cell line xenograft", "type": "in vivo", "details": "YUMC-C1 xenograft mice, oral, 13 times over 41 days, doses per Table 3", "protocol": "(§1) 15 days after injection of each of the cell lines, when the tumor volume reached about 100 to 200 mm^3, mice having a tumor with the above volume were randomly grouped (n=10/group), and then each drug was administered to the mice 13 times for a total of 41 days under the conditions shown in Table 3 below. […] Here, nothing was administered to the control group."}, "[2]": {"test_system": "YUMC-H2 cell line xenograft", "details": "YUMC-H2 xenograft mice, oral, 13 times over 41 days, doses per Table 3", "protocol": "as §1"}, "[3]": {"test_system": "YUMC-P1 cell line xenograft", "details": "YUMC-P1 xenograft mice, oral, 13 times over 41 days, doses per Table 3", "protocol": "as §1"}, "YUMC-P1 cell line": {"test_system": "YUMC-P1 cell line", "test": "MTT cell viability, anticancer drug-resistant YUMC-P1 cell line", "type": "cell-based, human", "details": "drug alone at 200 μM, FIG. 2"}, "YUMC-H2 cell line": {"test_system": "YUMC-H2 cell line", "test": "MTT cell viability, anticancer drug-resistant YUMC-H2 cell line", "type": "cell-based, human", "details": "drug alone at 200 μM, FIG. 2"}}}
{"smiles": "O=C1[O][Pt]2([NH][C@@H]3CCCC[C@H]3[NH]2)[O]C1=O", "note": "[oxaliplatin]", "values": [{"measurement": "cells survived", "setting": "YUMC-C1 cell line", "value": "more than 80%"}, {"measurement": "tumor volume", "setting": "[1]; vs control, FIG. 3", "value": "did not significantly decrease"}, {"measurement": "tumor weight", "setting": "[1]; vs control, FIG. 4", "value": "did not significantly decrease"}]}
{"smiles": "Cc1nc2c(C)cccc2c2c1CCN2c1ccccc1F", "note": "[Candidate 19]", "values": [{"measurement": "changes in mouse body weight (toxicity)", "setting": "[2]; FIG. 5", "value": "no changes"}, {"measurement": "changes in mouse body weight (toxicity)", "setting": "[1]; FIG. 5", "value": "no changes"}, {"measurement": "changes in mouse body weight (toxicity)", "setting": "[3]; FIG. 5", "value": "no changes"}]}
{"smiles": "CNC(=O)c1cc(Oc2ccc(NC(=O)Nc3ccc(Cl)c(C(F)(F)F)c3)cc2)ccn1", "note": "[sorafenib]", "values": [{"measurement": "cells survived", "setting": "YUMC-P1 cell line", "value": "more than 80%"}, {"measurement": "tumor volume", "setting": "[2]; FIG. 3", "value": "no significant changes"}, {"measurement": "tumor weight", "setting": "[2]; FIG. 4", "value": "no significant changes"}, {"measurement": "cells survived", "setting": "YUMC-H2 cell line", "value": "more than 80%"}, {"measurement": "tumor volume", "setting": "[3]; FIG. 3", "value": "no significant changes"}, {"measurement": "tumor weight", "setting": "[3]; FIG. 4", "value": "no significant changes"}]}
